Laboratory results as given in patent US20150252022A1, “RETINOIC ACID RECEPTOR-RELATED ORPHAN RECEPTOR MODULATORS AND USES THEREOF” (INNOV17 LLC, priority 2014, published 2015).

Legend:
Format in all cases: cell-based
Details in all cases: 72 h; human CD4+ T cells under TH17-polarizing conditions, 3 days, supernatant ELISA
[1] = test system: IL-21; experiment: Human TH17 Cytokine Inhibition as measured by ELISA (IL-21)
Protocol: (§1) Peripheral blood mononuclear cells (PBMCs) were sourced from freshly prepared leukocyte enriched plasma (buffy coat) from healthy donors (New York Blood Center). PBMCs were isolated by density gradient centrifugation using Ficoll-Paque™ PLUS (GE Healthcare). Human CD4+ T cells were seeded into 96-well plates (5×10^4 cells/well) and activated with plate-bound anti-human (h)-CD3 antibody and soluble h-aCD28 (both at 1 ug/ml; eBioscience) and differentiated into TH17 cells with 20 ng/mL h-IL-6, 5 ng/mL h-TGF-β1, 10 ng/mL h-IL-23 (eBioscience) and 10 ng/mL IL-1β (Miltenyi Biotec) in serum-free TexMACS Medium (Miltenyi Biotec) supplemented with 1% Penicillin/Streptomycin (Lonza) for 3 days. CD4+ T cells propagated under TH17-polarizing conditions were cultured in the presence or absence of various concentrations of compounds with a final concentration of 0.1% DMSO. Supernatants were collected and stored at −20° C. until assayed for IL-17A, IL-17F and IL-21 levels by “Ready-Set-Go” ELISA kits (eBioscience) as per manufacturer's instructions. Endpoint absorbance was read at 450 nm using a microplate reader (Perkin Elmer).

[2] = test system: IL-17A; experiment: Human TH17 Cytokine Inhibition as measured by ELISA (IL-17A)
Protocol: as §1

[3] = test system: IL-17F; experiment: Human TH17 Cytokine Inhibition as measured by ELISA (IL-17F)
Protocol: as §1

SMILES | IC50 [1] [µM] | IC50 [2] [µM] | IC50 [3] [µM]
O=C(NCc1ccccc1)N1CCC(CN2CCc3cc(-c4cn[nH]c4)ccc32)C1 (centres unmarked) [Example 65, 3-((5-(1H-pyrazol-4-yl)indolin-1-yl)methyl)-N-benzylpyrrolidine-1-carboxamide] | < 10 | < 10 | < 10
CC(C)C(=O)N1CCCC(Cn2ccc3cc(-c4cn[nH]c4)ccc32)CC1 (centres unmarked) [Example 60, 1-(4-((5-(1H-pyrazol-4-yl)-1H-indol-1-yl)methyl)azepan-1-yl)-2-methylpropan-1-one] | > 10 | < 10 | < 10
O=C(OCc1ccccc1)N1CCC(CN2CCc3cc(-c4cn[nH]c4)ccc32)CC1 [Example 70, benzyl 4-((5-(1H-pyrazol-4-yl)indolin-1-yl)methyl)piperidine-1-carboxylate] | < 10 | < 10 | < 10
CC(C)COC(=O)N1CCC(CN2CCc3cc(-c4cn[nH]c4)ccc32)C1 (centres unmarked) [Example 69, isobutyl 3-((5-(1H-pyrazol-4-yl)indolin-1-yl)methyl)pyrrolidine-1-carboxylate] | < 10 | < 10 | < 10
CC1CC(CN2CCc3cc(-c4cn[nH]c4)ccc32)CN1C(=O)CC1CCCCC1 (centres unmarked) [Example 28, 1-(4-((5-(1H-pyrazol-4-yl)indolin-1-yl)methyl)-2-methylpyrrolidin-1-yl)-2-cyclohexylethanone] | < 10 | < 10 | < 10
O=C(Cc1ccccc1)N1CCCC(CN2CCc3cc(-c4cn[nH]c4)ccc32)CC1 (centres unmarked) [Example 55, 1-(4-((5-(1H-pyrazol-4-yl)indolin-1-yl)methyl)azepan-1-yl)-2-phenylethanone] | < 10 | < 10 | < 10
O=C(OCc1ccccc1)N1CCC(CN2CCc3cc(-c4cn[nH]c4)ccc32)C1 (centres unmarked) [Example 62, benzyl 3-((5-(1H-pyrazol-4-yl)indolin-1-yl)methyl)pyrrolidine-1-carboxylate] | > 10 | < 10 | < 10
CC(C)CNC(=O)N1CCC(CN2CCc3cc(-c4cn[nH]c4)ccc32)CC1 [Example 74C, 4-((5-(1H-pyrazol-4-yl)indolin-1-yl)methyl)-N-isobutylpiperidine-1-carboxamide] | > 10 | < 10 | > 10
CC1CC(CN2CCc3cc(-c4cn[nH]c4)ccc32)CN1C(=O)Cc1ccccc1 (centres unmarked) [Example 25, 1-(4-((5-(1H-pyrazol-4-yl)indolin-1-yl)methyl)-2-methylpyrrolidin-1-yl)-2-phenylethanone] | < 10 | < 10 | < 10
O=C(CC1CCCCC1)N1CCC(CN2CCc3cc(-c4cn[nH]c4)ccc32)C1 (centres unmarked) [Example 13, 1-(3-((5-(1H-pyrazol-4-yl)indolin-1-yl)methyl)pyrrolidin-1-yl)-2-cyclohexylethanone] | > 10 | < 10 | < 10
CC(C)CC(=O)N1CCCC(Cn2ccc3cc(-c4cn[nH]c4)ccc32)CC1 (centres unmarked) [Example 59, 1-(4-((5-(1H-pyrazol-4-yl)-1H-indol-1-yl)methyl)azepan-1-yl)-3-methylbutan-1-one] | > 10 | < 10 | < 10
CC(C)CNC(=O)N1CCC(CN2CCc3cc(-c4cn[nH]c4)ccc32)C1 (centres unmarked) [Example 67, 3-((5-(1H-pyrazol-4-yl)indolin-1-yl)methyl)-N-isobutylpyrrolidine-1-carboxamide] | < 10 | < 10 | < 10
O=C(CCc1ccccc1)N1CCC(CN2CCc3cc(-c4cn[nH]c4)ccc32)C1 (centres unmarked) [Example 11, 1-(3-((5-(1H-pyrazol-4-yl)indolin-1-yl)methyl)pyrrolidin-1-yl)-3-phenylpropan-1-one] | < 10 | < 10 | < 10
CC(C)C(=O)N1CCC(CN2CCc3cc(-c4cn[nH]c4)ccc32)C1 (centres unmarked) [Example 15, 1-(3-((5-(1H-pyrazol-4-yl)indolin-1-yl)methyl)pyrrolidin-1-yl)-2-methylpropan-1-one] | < 10 | > 10 | > 10
O=C(CCc1ccccc1)N1CCC(CN2CCc3cc(-c4cn[nH]c4)ccc32)CC1 [Example 41, 1-(4-((5-(1H-pyrazol-4-yl)indolin-1-yl)methyl)piperidin-1-yl)-3-phenylpropan-1-one] | < 10 | < 10 | < 10

Next, values leading:

IC50 [1] [µM] | IC50 [2] [µM] | IC50 [3] [µM] | SMILES
< 10 | < 10 | < 10 | Cc1ncc(-c2ccc3c(ccn3CC3CCN(C(=O)CCc4ccccc4)CC3)c2)s1 [Example 120, 1-(4-((5-(2-methylthiazol-5-yl)-1H-indol-1-yl)methyl)piperidin-1-yl)-3-phenylpropan-1-one]
< 10 | < 10 | < 10 | O=C(CCc1ccccn1)N1CCC(Cn2ccc3cc(-c4cn[nH]c4)ccc32)CC1 [Example 91, 1-(4-((5-(1H-pyrazol-4-yl)-1H-indol-1-yl)methyl)piperidin-1-yl)-3-(pyridin-2-yl)propan-1-one]
< 10 | < 10 | < 10 | O=C(CCc1ccccc1)N1CCC(Cn2ccc3cc(-c4cn[nH]c4C(F)(F)F)ccc32)CC1 [Example 117, 3-phenyl-1-(4-((5-(5-(trifluoromethyl)-1H-pyrazol-4-yl)-1H-indol-1-yl)methyl)piperidin-1-yl)propan-1-one]
< 10 | < 10 | < 10 | C[C@H]1C[C@@H](Cn2ccc3cc(-c4cn[nH]c4)ccc32)CN1C(=O)CCc1ccccc1 (relative stereo) [Example 127, cis-1-(4-((5-(1H-pyrazol-4-yl)-1H-indol-1-yl)methyl)-2-methylpyrrolidin-1-yl)-3-phenylpropan-1-one]
< 10 | < 10 | < 10 | Cc1cc2cc(-c3cn[nH]c3)ccc2n1CC1CCN(C(=O)Cc2ccccc2)CC1 [Example 133, 1-(4-((2-methyl-5-(1H-pyrazol-4-yl)-1H-indol-1-yl)methyl)piperidin-1-yl)-2-phenylethanone]
< 10 | < 10 | < 10 | CC1(C)CC(Cn2ccc3cc(-c4cn[nH]c4)ccc32)CN1C(=O)c1ccccc1 (centres unmarked) [Example 108, (4-((5-(1H-pyrazol-4-yl)-1H-indol-1-yl)methyl)-2,2-dimethylpyrrolidin-1-yl)(phenyl)methanone]
< 10 | < 10 | < 10 | O=C(CCc1cccc(F)c1)N1CCC(Cn2ccc3cc(-c4cn[nH]c4)ccc32)CC1 [Example 94, 1-(4-((5-(1H-pyrazol-4-yl)-1H-indol-1-yl)methyl)piperidin-1-yl)-3-(3-fluorophenyl)propan-1-one]
> 10 | < 10 | < 10 | O=C(CC1CCCCC1)N1CCC(CN2CCCc3cc(-c4cn[nH]c4)ccc32)CC1 [Example 99, 1-(4-((6-(1H-pyrazol-4-yl)-3,4-dihydroquinolin-1(2H)-yl)methyl)piperidin-1-yl)-2-cyclohexylethanone]
> 10 | < 10 | < 10 | O=C(CCCc1ccccc1)N1CCC(CN2CCCc3cc(-c4cn[nH]c4)ccc32)CC1 [Example 103, 1-(4-((6-(1H-pyrazol-4-yl)-3,4-dihydroquinolin-1(2H)-yl)methyl)piperidin-1-yl)-4-phenylbutan-1-one]
< 10 | < 10 | < 10 | Cc1ccncc1-c1ccc2c(ccn2CC2CCN(C(=O)CCc3ccccc3)CC2)c1 [Example 123]
< 10 | < 10 | < 10 | CC1(C)CC(Cn2ccc3cc(-c4cn[nH]c4)ccc32)CN1C(=O)Cc1ccccc1 (centres unmarked) [Example 109]
< 10 | < 10 | < 10 | Cc1[nH]ncc1-c1ccc2c(ccn2CC2CCN(C(=O)CCc3ccccc3)CC2)c1 [Example 115, 1-(4-((5-(5-methyl-1H-pyrazol-4-yl)-1H-indol-1-yl)methyl)piperidin-1-yl)-3-phenylpropan-1-one]
< 10 | < 10 | < 10 | O=C(CCc1ccccc1)N1CCC(Cn2ccc3cc(-c4cnn(CCO)c4)ccc32)CC1 [Example 118, 1-(4-((5-(1-(2-hydroxyethyl)-1H-pyrazol-4-yl)-1H-indol-1-yl)methyl)piperidin-1-yl)-3-phenylpropan-1-one]
< 10 | < 10 | < 10 | C[C@@H]1C[C@@H](Cn2ccc3cc(-c4cn[nH]c4)ccc32)CN1C(=O)CCc1ccccc1 (relative stereo) [Example 129, trans-1-(4-((5-(1H-pyrazol-4-yl)-1H-indol-1-yl)methyl)-2-methylpyrrolidin-1-yl)-3-phenylpropan-1-one]
< 10 | < 10 | < 10 | Cc1cc2cc(-c3cn[nH]c3)ccc2n1CC1CC(C)N(C(=O)CCc2ccccc2)C1 (racemic) [Example 131, rac-1-(2-methyl-4-((2-methyl-5-(1H-pyrazol-4-yl)-1H-indol-1-yl)methyl)pyrrolidin-1-yl)-3-phenylpropan-1-one]
 | < 10 | < 10 | O=C(c1ccccc1)N1CCC(Cn2ccc3cc(-c4cn[nH]n4)ccc32)CC1 [Example 130, (4-((5-(2H-1,2,3-triazol-4-yl)-1H-indol-1-yl)methyl)piperidin-1-yl)(phenyl)methanone]
